Measurements from patent USRE38132E1, “Phenylpyrrolidines, phenylimidazolidines,3-phenyl-1,3-oxizolidines and 3-phenyl-1,3-thiazolidines and their use in the treatment of inflammatory disease” (Boehringer Ingelheim Pharmaceuticals, Inc., priority 1997, dated 2003).

Biological target: T1, interaction of ICAM-1 with the Leukointegrin CD18/CD11a (LFA-1) (Homo sapiens, UniProt P05107+P20701)
T1 construct: endogenous in cells; sICAM-1: made in house, secreted from transfected CHO DUX cells
Test: Assay to determine inhibition of LFA-1 binding to ICAM-1 (immunopurified LFA-1 on plate-bound sICAM-1, ELISA readout)
Conditions: not given

T1 sequence (P20701 26-1170): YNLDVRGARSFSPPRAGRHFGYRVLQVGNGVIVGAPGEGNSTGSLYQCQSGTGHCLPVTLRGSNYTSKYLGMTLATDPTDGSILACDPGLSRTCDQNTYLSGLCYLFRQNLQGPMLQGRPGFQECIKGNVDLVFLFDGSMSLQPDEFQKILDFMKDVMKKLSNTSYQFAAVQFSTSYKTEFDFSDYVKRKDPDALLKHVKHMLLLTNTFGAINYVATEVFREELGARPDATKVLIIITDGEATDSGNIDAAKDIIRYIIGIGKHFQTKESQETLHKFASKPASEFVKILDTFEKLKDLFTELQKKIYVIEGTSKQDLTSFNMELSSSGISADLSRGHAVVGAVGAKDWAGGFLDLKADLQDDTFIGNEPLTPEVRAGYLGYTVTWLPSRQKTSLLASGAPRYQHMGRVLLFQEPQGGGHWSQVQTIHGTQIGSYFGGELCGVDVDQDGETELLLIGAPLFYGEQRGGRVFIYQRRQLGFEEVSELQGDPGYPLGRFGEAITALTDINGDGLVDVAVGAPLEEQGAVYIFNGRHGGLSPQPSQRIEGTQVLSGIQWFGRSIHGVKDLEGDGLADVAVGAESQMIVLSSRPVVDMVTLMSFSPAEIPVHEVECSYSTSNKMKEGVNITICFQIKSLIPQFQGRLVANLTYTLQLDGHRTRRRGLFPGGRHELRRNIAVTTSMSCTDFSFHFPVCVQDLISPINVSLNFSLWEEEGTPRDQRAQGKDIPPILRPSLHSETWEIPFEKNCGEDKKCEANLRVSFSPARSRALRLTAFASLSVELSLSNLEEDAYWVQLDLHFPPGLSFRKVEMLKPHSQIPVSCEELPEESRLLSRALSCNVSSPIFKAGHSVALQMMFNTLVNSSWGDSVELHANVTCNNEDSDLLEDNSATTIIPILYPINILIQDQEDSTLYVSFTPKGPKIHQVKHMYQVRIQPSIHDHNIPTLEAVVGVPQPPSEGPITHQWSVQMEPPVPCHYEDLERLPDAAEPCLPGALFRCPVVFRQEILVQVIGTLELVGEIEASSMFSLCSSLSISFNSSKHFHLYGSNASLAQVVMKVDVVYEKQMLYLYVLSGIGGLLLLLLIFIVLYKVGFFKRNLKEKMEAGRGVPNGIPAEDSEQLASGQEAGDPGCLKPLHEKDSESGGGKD
T1 sequence (P05107 23-769): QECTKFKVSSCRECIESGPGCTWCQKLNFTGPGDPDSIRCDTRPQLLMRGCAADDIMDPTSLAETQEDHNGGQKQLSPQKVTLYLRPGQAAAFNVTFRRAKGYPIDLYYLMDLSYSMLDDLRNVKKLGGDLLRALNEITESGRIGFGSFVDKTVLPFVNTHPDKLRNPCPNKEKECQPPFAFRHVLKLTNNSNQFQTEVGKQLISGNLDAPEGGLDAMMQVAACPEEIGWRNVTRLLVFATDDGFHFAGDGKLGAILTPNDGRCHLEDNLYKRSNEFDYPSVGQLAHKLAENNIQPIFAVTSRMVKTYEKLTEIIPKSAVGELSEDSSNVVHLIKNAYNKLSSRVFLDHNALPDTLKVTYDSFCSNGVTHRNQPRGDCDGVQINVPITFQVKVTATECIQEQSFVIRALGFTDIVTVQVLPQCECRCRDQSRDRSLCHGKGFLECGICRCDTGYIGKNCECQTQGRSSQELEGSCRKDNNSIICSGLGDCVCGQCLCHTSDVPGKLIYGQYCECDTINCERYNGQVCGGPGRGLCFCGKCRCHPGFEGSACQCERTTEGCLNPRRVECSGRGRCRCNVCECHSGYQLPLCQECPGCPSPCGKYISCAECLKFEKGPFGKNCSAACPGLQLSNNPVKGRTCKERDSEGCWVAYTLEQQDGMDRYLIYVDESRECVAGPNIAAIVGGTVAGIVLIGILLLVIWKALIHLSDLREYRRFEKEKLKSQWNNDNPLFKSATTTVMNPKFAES

| Kd [nM] | SMILES |
| --- | --- |
| 270 | C[C@@]1(Cc2ccc(Br)cc2)C(=O)N(c2cc(Cl)cc(Cl)c2)C(=O)N1CCCCCCP(=O)(O)O [Example 220] |
| 2000 | CCN1C(=O)N(c2cc(Cl)cc(Cl)c2)C(=O)[C@]1(C)Cc1ccc(Br)cc1 [Example 275] |
| 2200 | CN1C(=O)N(c2cc(Cl)cc(Cl)c2)C(=O)C1(CN)Cc1ccc(Br)cc1 (stereo not shown) [Example 230] |
| 540 | Cc1cc(C)cc(-c2ccc(CC3(C)NC(=O)N(c4cc(Cl)cc(Cl)c4)C3=O)cc2)c1 (stereo not shown) [Example 210] |
| 70 | CC1(Cc2ccc(-c3cccc(F)c3)cc2)NC(=O)N(c2cc(Cl)cc(Cl)c2)C1=O (stereo not shown) [Example 212] |
| 60 | C[C@@]1(Cc2ccc(Br)cc2)C(=O)N(c2cc(Cl)cc(Cl)c2)C(=O)N1CCCCCP(=O)(O)O [Example 222] |
| 1240 | C[C@@]1(Cc2ccc(Br)cc2)C(=O)N(c2cc(Cl)cc(Cl)c2)C(=O)N1C(=O)[C@H](N)CO [Example 232] |
| 250 | C[C@@]1(Cc2ccc(Br)cc2)C(=O)N(c2cc(Cl)cc(Cl)c2)C(=O)N1Cc1ccc(O)cc1 [Example 246] |
| 90 | COc1cccc(-c2ccc(CC3(C)NC(=O)N(c4cc(Cl)cc(Cl)c4)C3=O)cc2)c1 (stereo not shown) [Example 214] |
| 1790 | C[C@@]1(Cc2ccc(Br)cc2)C(=O)N(c2cc(Cl)cc(Cl)c2)C(=O)N1C(=O)[C@@H](N)CO [Example 233] |
| 80 | C[C@@]1(Cc2ccc(Br)cc2)C(=O)N(c2cc(Cl)cc(Cl)c2)C(=O)N1COC(=O)C(CO)CO [Example 238] |
| 1780 | O=C1NC(CCc2ccc(I)cc2)C(=O)N1c1cc(Cl)cc(Cl)c1 (stereo not shown) [Example 217] |

| SMILES | Kd [nM] |
| --- | --- |
| C[C@]1(Cc2ccc(C(=O)c3ccccc3)cc2)NC(=O)N(c2cc(Cl)cc(Cl)c2)C1=O [Example 216] | 500 |

Same assay, conditions: at 160 μg/mL; read-out: LFA-1/ICAM Binding Assay percent inhibition

| inhibition at 160 µg/mL [%] | SMILES |
| --- | --- |
| 47 | O=C1NC(Cc2cccnc2)C(=O)N1c1cc(Cl)cc(Cl)c1 (stereo not shown) [Example 181] |

Same assay, conditions: values marked e approximated from incomplete dose-response curve

| Kd [nM] | SMILES |
| --- | --- |
| 2260 | COC(=O)c1ccc(CC2(C)NC(=O)N(c3cc(Cl)cc(Cl)c3)C2=O)cc1 (stereo not shown) [Example 46] |
| 4050 | C[C@]1(Cc2ccc(Br)cc2)NC(=O)N(c2cccc(Cl)c2)C1=O [Example 36] |
| 290 | CC1(Cc2ccccc2)CC(=O)N(c2cc(Cl)cc(Cl)c2)C1=O (stereo not shown) [Example 75] |
| 1360 | CCCC1(Cc2ccccc2)NC(=O)N(c2cc(Cl)cc(Cl)c2)C1=O (stereo not shown) [Example 31] |
| 600 | C[C@]1(Cc2c[nH]c3ccccc23)NC(=O)N(c2cc(Cl)cc(Cl)c2)C1=O [Example 42] |
| 760 | O=C1NC(Cc2ccc(Br)cc2)C(=O)N1c1cc(Cl)cc(Cl)c1 (stereo not shown) [Example 19] |
| 340 | CC1(Cc2ccc(Br)cc2)NC(=S)N(c2cc(Cl)cc(Cl)c2)C1=S (stereo not shown) [Example 78] |
| 510 | CC1(Cc2ccccc2)C(=O)N(c2cc(Cl)cc(Cl)c2)C(=O)N1C1CC1 (stereo not shown) [Example 150] |
| ~1000 | Cc1ccc(-c2ccc(CC3(C)NC(=O)N(c4cc(Cl)cc(Cl)c4)C3=O)cc2)cc1[N+](=O)[O-] (stereo not shown) [Example 192] |
| 340 | C[C@@H]1C(=O)N(c2cc(Cl)cc(Cl)c2)C(=O)[C@]1(C)Cc1ccc(Br)cc1 [Example 73] |
| 1480 | CCC1(Cc2ccccc2)NC(=O)N(c2cc(Cl)cc(Cl)c2)C1=O (stereo not shown) [Example 30] |
| 810 | COc1ccccc1CN1C(=O)N(c2cc(Cl)cc(Cl)c2)C(=O)[C@@]1(C)Cc1ccc(Br)cc1 [Example 126] |
| 940 | C[C@]1(Cc2ccc(-c3ccc(C(=O)O)cc3)cc2)NC(=O)N(c2cc(Cl)cc(Cl)c2)C1=O [Example 183] |
| 680 | CN1C(=O)N(c2cccc(Cl)c2)C(=O)[C@@]1(C)Cc1ccc(Br)cc1 [Example 101] |
| 1050 | CN1C(=O)N(c2cc(Cl)cc(Cl)c2)C(=O)C1(C)Cc1ccccc1Br (stereo not shown) [Example 145] |
| 1640 | O=C(c1ccccc1)c1ccc(CC2NC(=O)N(c3cc(Cl)cc(Cl)c3)C2=O)cc1 (stereo not shown) [Example 1] |
| 2850 | CC1(Cc2cc(F)cc(F)c2)NC(=O)N(c2cc(Cl)cc(Cl)c2)C1=O (stereo not shown) [Example 58] |
| 500 | Cc1ccccc1CC1(C)C(=O)N(c2cc(Cl)cc(Cl)c2)C(=O)N1C (stereo not shown) [Example 148] |
| 730 | CC1(Cc2ccc(-c3cccc(Br)c3)cc2)NC(=O)N(c2cc(Cl)cc(Cl)c2)C1=O (stereo not shown) [Example 206] |
| 480 | CC1(Cc2cccc(Oc3ccccc3)c2)NC(=O)N(c2cc(Cl)cc(Cl)c2)C1=O (stereo not shown) [Example 56] |
| 120 | CCN1C(=O)N(c2cc(Cl)cc(Cl)c2)C(=O)C1(C)Cc1ccc(Br)cc1 (stereo not shown) [Example 105] |

| Kd [nM] | SMILES |
| --- | --- |
| 140 | CC1(Cc2ccc(-c3ccccc3Cl)cc2)NC(=O)N(c2cc(Cl)cc(Cl)c2)C1=O (stereo not shown) [Example 191] |
| 3960 | CN1C(=O)N(c2cc(Cl)cc(Cl)c2)C(=O)C1(C)Cc1ccc(S(C)(=O)=O)cc1 (stereo not shown) [Example 176] |
| 1170 | CN1C(=O)N(c2cc(Cl)cc(Cl)c2)C(=O)C1C(O)c1ccccc1 (stereo not shown) [Example 178] |
| 670 | C[C@H]1C(=O)N(c2cc(Cl)cc(Cl)c2)C(=O)[C@]1(C)Cc1ccccc1 [Example 74] |
| 420 | O=C1C(Cc2ccccc2)N(Cc2ccccc2)C(=O)N1c1cc(Cl)cc(Cl)c1 (stereo not shown) [Example 84] |
| 1200 | Cc1cccc(CC2(C)C(=O)N(c3cc(Cl)cc(Cl)c3)C(=O)N2C)c1 (stereo not shown) [Example 143] |
| 1050 | Cc1cc(C)cc(CC2(C)C(=O)N(c3cc(Cl)cc(Cl)c3)C(=O)N2C)c1 (stereo not shown) [Example 162] |
| 1470 | CC1(Cc2cccc(C(F)(F)F)c2)NC(=O)N(c2cc(Cl)cc(Cl)c2)C1=O (stereo not shown) [Example 53] |
| 490 | CN(C)C(=O)CN1C(=O)N(c2cc(Cl)cc(Cl)c2)C(=O)[C@@]1(C)Cc1ccc(Br)cc1 [Example 107] |
| 2660 | CN1C(=O)N(c2cc(Cl)cc(Cl)c2)C(=O)C1(C)Cc1ccccc1C#N (stereo not shown) [Example 152] |
| 430 | CC1(Cc2ccc(C(F)(F)F)cc2)NC(=O)N(c2cc(Cl)cc(Cl)c2)C1=O (stereo not shown) [Example 51] |
| 1280 | CCOc1ccc(-c2ccc(CC3(C)NC(=O)N(c4cc(Cl)cc(Cl)c4)C3=O)cc2)cc1 (stereo not shown) [Example 207] |
| 1110 | CN1C(=O)N(c2cc(Cl)cc(Cl)c2)C(=O)[C@@]1(C)Cc1ccc(-c2ccc(C(=O)O)cc2)cc1 [Example 186] |
| 3080 | CC(N)(Cc1c[nH]c2ccccc12)C(=O)O (stereo not shown) [Example 25] |
| 690 | CN1C(=O)N(c2cc(Cl)cc(Cl)c2)C(=O)C1(C)Cc1ccccc1Cl (stereo not shown) [Example 156] |
| 260 | CN1C(=O)N(c2cc(Cl)cc(Cl)c2)C(=O)C1Cc1ccc(C(=O)c2ccccc2)cc1 (stereo not shown) [Example 95] |
| 190 | Cc1ccccc1-c1ccc(CC2(C)NC(=O)N(c3cc(Cl)cc(Cl)c3)C2=O)cc1 (stereo not shown) [Example 197] |
| 300 | CC1(Cc2ccc(-c3cccs3)cc2)NC(=O)N(c2cc(Cl)cc(Cl)c2)C1=O (stereo not shown) [Example 195] |
| 600 | CN1C(=O)N(c2cc(Cl)cc(Cl)c2)C(=O)C1(C)Cc1c(F)c(F)c(F)c(F)c1F (stereo not shown) [Example 167] |
| 500 | CC1(Cc2ccc(-c3cccc([N+](=O)[O-])c3)cc2)NC(=O)N(c2cc(Cl)cc(Cl)c2)C1=O (stereo not shown) [Example 204] |
| 410 | CN1C(=O)N(c2cc(Cl)cc(Cl)c2)C(=O)C1(C)Cc1ccc(C(=O)c2ccccc2)cc1 (stereo not shown) [Example 168] |

| Kd [nM] | SMILES |
| --- | --- |
| 1960 | O=C1NC(C(c2ccccc2)c2ccccc2)C(=O)N1c1cc(Cl)cc(Cl)c1 (stereo not shown) [Example 13] |
| 140 | CCOc1cccc(-c2ccc(CC3(C)NC(=O)N(c4cc(Cl)cc(Cl)c4)C3=O)cc2)c1 (stereo not shown) [Example 198] |
| 350 | Cc1ccc(CC2(C)C(=O)N(c3cc(Cl)cc(Cl)c3)C(=O)N2C)cc1 (stereo not shown) [Example 144] |
| 360 | CC1(Cc2ccc(OC(F)(F)F)cc2)NC(=O)N(c2cc(Cl)cc(Cl)c2)C1=O (stereo not shown) [Example 57] |
| 430 | Cc1ccccc1CC1(C)C(=O)N(c2cc(Cl)cc(Cl)c2)C(=O)N1C (stereo not shown) [Example 142] |
| 280 | COc1ccc(CC2(C)C(=O)N(c3cc(Cl)cc(Cl)c3)C(=O)N2C)cc1 (stereo not shown) [Example 166] |
| 680 | CC1(Cc2ccc(-c3ccc(Cl)cc3Cl)cc2)NC(=O)N(c2cc(Cl)cc(Cl)c2)C1=O (stereo not shown) [Example 201] |
| 340 | CC(=O)Nc1cccc(-c2ccc(CC3(C)NC(=O)N(c4cc(Cl)cc(Cl)c4)C3=O)cc2)c1 (stereo not shown) [Example 203] |
| 3840 | O=C1NC(C(O)c2ccccc2)C(=O)N1c1cc(Cl)cc(Cl)c1 (stereo not shown) [Example 179] |
| 430 | CC(C)(C)OC(=O)CN1C(=O)N(c2cc(Cl)cc(Cl)c2)C(=O)C1(C)Cc1ccccc1 (stereo not shown) [Example 91] |
| 640 | CN1C(=O)N(c2cc(Cl)cc(Cl)c2)C(=O)C1(C)Cc1ccc2c(c1)OCO2 (stereo not shown) [Example 160] |
| 940 | CC1(Cc2ccccc2)C(=O)N(c2cc(Cl)cc(Cl)c2)C(=O)N1C1CCCCC1 (stereo not shown) [Example 33] |
| 430 | CN1C(=S)N(c2cc(Cl)cc(Cl)c2)C(=S)C1(C)Cc1ccc(Br)cc1 (stereo not shown) [Example 79] |
| 270 | C[C@@]1(Cc2ccc(Br)cc2)C(=O)N(c2cc(Cl)cc(Cl)c2)C(=O)N1Cc1cccc(C#N)c1 [Example 104] |
| 1150 | Cc1cccc(C)c1CC1(C)NC(=O)N(c2cc(Cl)cc(Cl)c2)C1=O (stereo not shown) [Example 38] |
| 290 | CCOc1ccccc1-c1ccc(CC2(C)NC(=O)N(c3cc(Cl)cc(Cl)c3)C2=O)cc1 (stereo not shown) [Example 193] |
| 650 | CC1(Cc2ccc(-c3ccc(C(F)(F)F)cc3)cc2)NC(=O)N(c2cc(Cl)cc(Cl)c2)C1=O (stereo not shown) [Example 208] |
| 90 | CC1(Cc2ccc(-c3ccccc3F)cc2)NC(=O)N(c2cc(Cl)cc(Cl)c2)C1=O (stereo not shown) [Example 200] |
| 12100 | CC(C)C1(Cc2ccccc2)NC(=O)N(c2cc(Cl)cc(Cl)c2)C1=O (stereo not shown) [Example 32] |
| 480 | C[C@@]1(Cc2ccc(Br)cc2)C(=O)N(c2cc(Cl)cc(Cl)c2)C(=O)N1CCCCCCCl [Example 120] |
| 690 | CN1C(=O)N(c2cc(Cl)cc(Cl)c2)C(=O)C1(C)Cc1ccccc1 (stereo not shown) [Example 158] |

| SMILES | Kd [nM] |
| --- | --- |
| COC(=O)c1ccc(CC2(C)C(=O)N(c3cc(Cl)cc(Cl)c3)C(=O)N2C)cc1 (stereo not shown) [Example 174] | 710 |
| CCCN1C(=O)N(c2cc(Cl)cc(Cl)c2)C(=O)C1(C)Cc1ccc(Br)cc1 (stereo not shown) [Example 106] | 140 |
